Literature values in patent US20220370561A1, “LITHIUM AS A MONOTHERAPY AND/OR STEM CELL ADJUVANT THERAPY FOR PULMONARY FIBROSIS” (Therapeutic Solutions International, Inc., priority 2021, published 2022).
Read-outs that look alike come from different tables or passages of the source.

Legend:
[1] = test system: telomere length
[2] = danazol orally 800 mg per day
[3] = test system: mesenchymal stem cells; conditions: culture of cells with valproic acid
[4] = test system: p16/p21 pathway; conditions: in vitro pre-mature senescence model
[5] = 12 months, exploratory analysis

SMILES	mean increase in telomere length ([1]; 6 months, exploratory analysis)	patients with increase in telomere length ([1]; 6 months, exploratory analysis)	mean increase in telomere length [1, 5]	patients with increase in telomere length [1, 5]	mean increase in telomere length ([1]; 24 months compared with baseline)	patients with a gain in telomere length compared with baseline ([1]; 24 months, 11 of 12)	telomere attrition in patients evaluable for the primary end point ([1]; danazol orally 800 mg per day, 24 months)	patients meeting the primary efficacy end point (20% reduction in annual rate of telomere attrition), intention-to-treat ([1]; danazol orally 800 mg per day, 24 months, 12 of 27 patients)	hematologic responses (3 months, 19 of 24 evaluable patients)	hematologic responses (24 months, 10 of 12 evaluable patients)	elevated liver-enzyme levels of grade 2 or less, patients [2]	muscle cramps of grade 2 or less, patients [2]	immune regulatory and metabolic properties of mesenchymal stem cells [3]	G2/M phase blockage derived from the senescence stress [4]	cell proliferation [4]	apoptosis ([4]; through suppression of the p16/p21 pathway)
C#C[C@]1(O)CC[C@H]2[C@@H]3CCC4=Cc5oncc5C[C@]4(C)[C@H]3CC[C@@]21C [danazol]	175 bp	16 of 21	360 bp	16 of 18	386 bp	92%	reduced in all 12 patients	44%	79%	83%	41%	33%				
CCCC(CCC)C(=O)O [valproic acid]													enhanced	inhibited the G2/M phase blockage	increased cell proliferation	inhibited apoptosis
